What was measured:
[1] = molecular target: T1, Akt2 (Homo sapiens, UniProt P31751); assay: Akt2 activity in human hepatocytes; assay type: cell-based
T1 construct: host or cells: primary human hepatocytes
Experimental: After thawing, the hepatocytes were distributed (approximately 10^6 cells per 100 mm plate) and incubated approximately 16 hours overnight in Dulbecco's minimal essential medium containing 5% fetal calf serum, 100 units/ml sodium-penicillin, 100 μg/ml streptomycin-sulfate, 1 μM insulin and 2 μM dexamethasone. After washing, cells were incubated first for 2 hours in William's E medium (Sigma-Aldrich, St. Louis, Mo., catalog no. W1878) containing GLUTAMAX™ (Gibco/Invitrogen, Carlsbad, Calif.), 100 units/ml sodium-penicillin, 100 μg/ml streptomycin-sulfate, 10 μM insulin, 100 nM dexamethasone, and then for 2 hours in William's E medium containing 100 units/ml sodium penicillin, 100 μg/ml streptomycin-sulfate, 100 nM dexamethasone, 0.25 mg/ml transferrin, 0.25 μg/ml sodium selenite and 10 μM insulin. Cells were then washed and incubated for 3 hours in the same medium, but lacking insulin. […]
Akt2 Assay: Akt2 enzyme activity was measured with a kit obtained from Upstate Cell Signaling, as described (Standaert et al., J. Biol. Chem. 279:24929-24934, 2004; Sajan et al., J. Lipid Res. 50:1133-1145, 2009; Sajan et al., Diabetologia 52:1197-1207, 2009; Farese et al., J. Clin. Invest. 117:2289-2301, 2007). […] Akt1/2 activation was also assessed by immunoblotting for phosphorylation of serine-473.

[2] = system: FoxO1; assay: serine-256 phosphorylation of FoxO1 in human hepatocytes; assay type: cell-based; settings: inhibitor alone or with insulin
Experimental: After thawing, the hepatocytes were distributed (approximately 10^6 cells per 100 mm plate) and incubated approximately 16 hours overnight in Dulbecco's minimal essential medium containing 5% fetal calf serum, 100 units/ml sodium-penicillin, 100 μg/ml streptomycin-sulfate, 1 μM insulin and 2 μM dexamethasone. After washing, cells were incubated first for 2 hours in William's E medium (Sigma-Aldrich, St. Louis, Mo., catalog no. W1878) containing GLUTAMAX™ (Gibco/Invitrogen, Carlsbad, Calif.), 100 units/ml sodium-penicillin, 100 μg/ml streptomycin-sulfate, 10 μM insulin, 100 nM dexamethasone, and then for 2 hours in William's E medium containing 100 units/ml sodium penicillin, 100 μg/ml streptomycin-sulfate, 100 nM dexamethasone, 0.25 mg/ml transferrin, 0.25 μg/ml sodium selenite and 10 μM insulin. Cells were then washed and incubated for 3 hours in the same medium, but lacking insulin. Where indicated, an aPKC inhibitor was then added and incubation was continued for 30 min, after which, cells were treated either for 15 min with or without 100 nM insulin for acute signaling studies, or for 6 hours, with or without 1 μM insulin for expression studies. After incubation, cells were sonicated in homogenizing buffer. […]

[3] = system: AMP-activated protein kinase; assay: AMP-activated protein kinase activity

T1 sequence (P31751 whole entry): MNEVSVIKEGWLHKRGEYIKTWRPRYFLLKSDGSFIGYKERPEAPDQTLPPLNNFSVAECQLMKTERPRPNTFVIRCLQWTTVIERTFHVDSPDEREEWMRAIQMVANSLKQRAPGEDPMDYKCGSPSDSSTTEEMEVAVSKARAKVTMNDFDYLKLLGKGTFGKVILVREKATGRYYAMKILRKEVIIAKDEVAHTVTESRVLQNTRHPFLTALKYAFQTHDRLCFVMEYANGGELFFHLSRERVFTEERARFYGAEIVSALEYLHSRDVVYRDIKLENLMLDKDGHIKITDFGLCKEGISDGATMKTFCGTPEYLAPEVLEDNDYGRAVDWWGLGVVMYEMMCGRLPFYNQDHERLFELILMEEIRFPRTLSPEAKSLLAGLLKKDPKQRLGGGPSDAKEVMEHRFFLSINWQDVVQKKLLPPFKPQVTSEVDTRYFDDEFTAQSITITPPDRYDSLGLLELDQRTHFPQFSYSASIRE

SMILES	insulin-induced increases in Akt activity [1]	FoxO1 phosphorylation [2]	AMP-activated protein kinase activity [3]
O=C([O-])CC([S][Au])C(=O)[O-] (stereo not drawn) [ATM, aurothiomalate, reference compound]	neither ICAPP nor ATM inhibited	insulin-like, or enhanced insulin, effects	neither ICAPP nor ATM altered
NC(=O)c1ncn([C@@H]2C[C@H](COP(=O)(O)O)[C@@H](O)[C@H]2O)c1N [ICAPP, 1H-imidazole-4-carboxamide, 5-amino-1-[2,3-dihydroxy-4-[(phosphonooxy)methyl]cyclopentyl]-[1R-(1α,2β,3β,4α)]]	neither ICAPP nor ATM inhibited	insulin-like, or enhanced insulin, effects	neither ICAPP nor ATM altered

Reference: US8580769B2, “Treatment of obesity, metabolic syndrome, and diabetes with protein kinase C inhibitors” (The United States of America as represented by the …, priority 2011, dated 2013)
